≈ marks a conversion by molar mass, not a printed value. Calls of active or inactive are those of the source. No cut-off for these calls is given here.

Drawing on ChEMBL document CHEMBL1144499, “Complanadines C and D, new dimeric alkaloids from Lycopodium complanatum” (Bioorg Med Chem, 2007), this text covers MIC, Activity and IC50 for one compound.

One experiment has as its system Aspergillus niger. As to the kind of experiment: Antimicrobial activity against Aspergillus niger. It is filed as functional.
For the next experiment, the system named is 1321-N1. Put plainly: Enhancement of NGF mRNA expression in human 1321N1 cells. In kind it is functional, cell-based.
Another experiment deals with L1210. Put plainly: Cytotoxicity against mouse L1210 cells. In kind it is cell-based.
For the next experiment, the system named is Cryptococcus neoformans. As to the kind of experiment: Antimicrobial activity against Cryptococcus neoformans. It is filed as functional.

As for `C[C@@H]1C[C@H]2CC3=C(CC[C@H](c4cnc5c(c4)[C@@]46C[C@H](C)C[C@@H](C5)[C@H]4CCCN6)N3)[C@]3(C1)NCCC[C@H]23` [COMPLANADINE D], the MIC with Aspergillus niger is 4.16 µg/mL (≈ 8.55 µM); with Cryptococcus neoformans, 0.26 µg/mL (≈ 0.534 µM). In the experiment on 1321-N1, the outcome was Active. In addition, the concentration for half-maximal inhibition (IC50) in the experiment with L1210 was 7 µg/mL (≈ 14.4 µM).
